Laboratory results as given in US9006250B2, “4-amino-6-(heterocyclic)picolinates and 6-amino-2-(heterocyclic)pyrimidine-4-carboxylates and their use as herbicides” (Dow AgroSciences, LLC, priority 2013, dated 2015).

Assays:
[1] = system: ORYSA: rice (Oryza sativa); experiment: Post-Emergent Test II herbicidal activity; assay type: in vivo; settings: post-emergence, 336 h, 14 days, read-out: Visual Growth Reduction (%) 14 Days After Application ORYSA; for pest or weed control at 35 g/ha: 35 g ai/ha; for pest or weed control at 70 g/ha: 70 g ai/ha; for pest or weed control at 140 g/ha: 140 g ai/ha
Procedure: (§1) Post-Emergent Test II: Seeds or nutlets of the desired test plant species were planted in Sun Gro Metro-Mix® 360 planting mixture, which typically has a pH of 6.0 to 6.8 and an organic matter content of about 30 percent, in plastic pots with a surface area of 64 square centimeters. When required to ensure good germination and healthy plants, a fungicide treatment and/or other chemical or physical treatment was applied. The plants were grown for 7-21 d in a greenhouse with an approximate 15 h photoperiod which was maintained at about 23-29° C. during the day and 22-28° C. during the night. Nutrients and water were added on a regular basis and supplemental lighting was provided with overhead metal halide 1000-Watt lamps as necessary. The plants were employed for testing when they reached the first or second true leaf stage.
(§2) A weighed amount, determined by the highest rate to be tested, of each test compound was placed in a 25 mL glass vial and was dissolved in 4 mL of a 97:3 v/v mixture of acetone and DMSO to obtain concentrated stock solutions. […] The concentrated stock solutions obtained were diluted with 20 mL of an aqueous mixture containing acetone, water, isopropyl alcohol, DMSO, Atplus 411F crop oil concentrate, and Triton® X-155 surfactant in a 48.5:39:10:1.5:1.0:0.02 v/v ratio to obtain spray solutions containing the highest application rates. Additional application rates were obtained by serial dilution of 12 mL of the high rate solution into a solution containing 2 mL of 97:3 v/v mixture of acetone and DMSO and 10 mL of an aqueous mixture containing acetone, water, isopropyl alcohol, DMSO, Atplus 411F crop oil concentrate, and Triton X®-155 surfactant in a 48.5:39:10:1.5:1.0:0.02 v/v ratio to obtain ½×, ¼×, ⅛× and 1/16× rates of the high rate. Compound requirements are based upon a 12 mL application volume at a rate of 187 liters per hectare (L/ha). Formulated compounds were applied to the plant material with an overhead Mandel track sprayer equipped with 8002E nozzles calibrated to deliver 187 L/ha over an application area of 0.503 square meters at a spray height of 18 inches […] above the average plant canopy height. Control plants were sprayed in the same manner with the solvent blank.
(§3) The treated plants and control plants were placed in a greenhouse as described above and watered by subirrigation to prevent wash-off of the test compounds. After 14 d, the condition of the test plants as compared with that of the untreated plants was determined visually and scored on a scale of 0 to 100 percent where 0 corresponds to no injury and 100 corresponds to complete kill.

[2] = system: AMARE: redroot pigweed (Amaranthus retroflexus); experiment: Post-Emergent Test II herbicidal activity; assay type: in vivo; settings: post-emergence, 336 h, 14 days, read-out: Visual Growth Reduction (%) 14 Days After Application AMARE; for pest or weed control at 35 g/ha: 35 g ai/ha; for pest or weed control at 70 g/ha: 70 g ai/ha; for pest or weed control at 140 g/ha: 140 g ai/ha
Procedure: as §1, §2, §3

[3] = system: EPHHL: wild poinsettia (Euphorbia heterophylla); experiment: Post-Emergent Test II herbicidal activity; assay type: in vivo; settings: post-emergence, 336 h, 14 days, read-out: Visual Growth Reduction (%) 14 Days After Application EPHHL; for pest or weed control at 35 g/ha: 35 g ai/ha; for pest or weed control at 70 g/ha: 70 g ai/ha; for pest or weed control at 140 g/ha: 140 g ai/ha
Procedure: as §1, §2, §3

[4] = system: SETFA: giant foxtail (Setaria faberi); experiment: Post-Emergent Test II herbicidal activity; assay type: in vivo; settings: post-emergence, 336 h, 14 days, read-out: Visual Growth Reduction (%) 14 Days After Application SETFA; for pest or weed control at 35 g/ha: 35 g ai/ha; for pest or weed control at 70 g/ha: 70 g ai/ha; for pest or weed control at 140 g/ha: 140 g ai/ha
Procedure: as §1, §2, §3

[5] = system: CYPES: yellow nutsedge (Cyperus esculentus); experiment: Post-Emergent Test II herbicidal activity; assay type: in vivo; settings: post-emergence, 336 h, 14 days, read-out: Visual Growth Reduction (%) 14 Days After Application CYPES; for pest or weed control at 35 g/ha: 35 g ai/ha; for pest or weed control at 70 g/ha: 70 g ai/ha; for pest or weed control at 140 g/ha: 140 g ai/ha
Procedure: as §1, §2, §3

[6] = system: ECHCG: barnyardgrass (Echinochloa crus-galli); experiment: Post-Emergent Test II herbicidal activity; assay type: in vivo; settings: post-emergence, 336 h, 14 days, read-out: Visual Growth Reduction (%) 14 Days After Application ECHCG; for pest or weed control at 35 g/ha: 35 g ai/ha; for pest or weed control at 70 g/ha: 70 g ai/ha; for pest or weed control at 140 g/ha: 140 g ai/ha
Procedure: as §1, §2, §3

[7] = system: HELAN: sunflower (Helianthus annuus); experiment: Post-Emergent Test II herbicidal activity; assay type: in vivo; settings: post-emergence, 336 h, 14 days, read-out: Visual Growth Reduction (%) 14 Days After Application HELAN; for pest or weed control at 35 g/ha: 35 g ai/ha; for pest or weed control at 70 g/ha: 70 g ai/ha; for pest or weed control at 140 g/ha: 140 g ai/ha
Procedure: as §1, §2, §3

[8] = system: BRSNN: oilseed rape, canola (Brassica napus); experiment: Post-Emergent Test II herbicidal activity; assay type: in vivo; settings: post-emergence, 336 h, 14 days, read-out: Visual Growth Reduction (%) 14 Days After Application BRSNN; for pest or weed control at 35 g/ha: 35 g ai/ha; for pest or weed control at 70 g/ha: 70 g ai/ha; for pest or weed control at 140 g/ha: 140 g ai/ha
Procedure: as §1, §2, §3

[9] = system: TRZAS: wheat, spring (Triticum aestivum); experiment: Post-Emergent Test II herbicidal activity; assay type: in vivo; settings: post-emergence, 336 h, 14 days, read-out: Visual Growth Reduction (%) 14 Days After Application TRZAS; for pest or weed control at 35 g/ha: 35 g ai/ha; for pest or weed control at 70 g/ha: 70 g ai/ha; for pest or weed control at 140 g/ha: 140 g ai/ha
Procedure: as §1, §2, §3

[10] = system: ABUTH: velvetleaf (Abutilon theophrasti); experiment: Post-Emergent Test II herbicidal activity; assay type: in vivo; settings: post-emergence, 336 h, 14 days, read-out: Visual Growth Reduction (%) 14 Days After Application ABUTH; for pest or weed control at 35 g/ha: 35 g ai/ha; for pest or weed control at 70 g/ha: 70 g ai/ha; for pest or weed control at 140 g/ha: 140 g ai/ha
Procedure: as §1, §2, §3

[11] = system: CHEAL: lambsquarters (Chenopodium album); experiment: Post-Emergent Test II herbicidal activity; assay type: in vivo; settings: post-emergence, 336 h, 14 days, read-out: Visual Growth Reduction (%) 14 Days After Application CHEAL; for pest or weed control at 35 g/ha: 35 g ai/ha; for pest or weed control at 70 g/ha: 70 g ai/ha; for pest or weed control at 140 g/ha: 140 g ai/ha
Procedure: as §1, §2, §3

melting point	SMILES	pest or weed control at 35 g/ha [1]	pest or weed control at 70 g/ha [1]	pest or weed control at 140 g/ha [1]	pest or weed control at 35 g/ha [2]	pest or weed control at 70 g/ha [2]	pest or weed control at 140 g/ha [2]	pest or weed control at 35 g/ha [3]	pest or weed control at 70 g/ha [3]	pest or weed control at 140 g/ha [3]	pest or weed control at 35 g/ha [4]	pest or weed control at 70 g/ha [4]	pest or weed control at 140 g/ha [4]	pest or weed control at 35 g/ha [5]	pest or weed control at 70 g/ha [5]	pest or weed control at 140 g/ha [5]	pest or weed control at 35 g/ha [6]	pest or weed control at 70 g/ha [6]	pest or weed control at 140 g/ha [6]	pest or weed control at 35 g/ha [7]	further results
142 to 144 °C	COC(=O)c1nc(-c2ccc3nonc3c2OC)cc(N)c1Cl [Compound 9, Methyl 4-amino-3-chloro-6-(4-methoxybenzo[c][1,2,5]oxadiazol-5-yl)picolinate]	0 to 29%	0 to 29%	0 to 29%	45 to 59%	60 to 74%	60 to 74%	0 to 29%	0 to 29%	0 to 29%	0 to 29%	0 to 29%	0 to 29%	0 to 29%	0 to 29%	0 to 29%	0 to 29%	0 to 29%	0 to 29%	0 to 29%	pest or weed control at 70 g/ha [7]: 0 to 29%; pest or weed control at 140 g/ha [7]: 0 to 29%; pest or weed control at 35 g/ha [8]: 0 to 29%; pest or weed control at 70 g/ha [8]: 0 to 29%; pest or weed control at 140 g/ha [8]: 0 to 29%; pest or weed control at 35 g/ha [9]: 0 to 29%; pest or weed control at 70 g/ha [9]: 0 to 29%; pest or weed control at 140 g/ha [9]: 0 to 29%; pest or weed control at 35 g/ha [10]: 0 to 29%; pest or weed control at 70 g/ha [10]: 0 to 29%; pest or weed control at 140 g/ha [10]: 0 to 29%; pest or weed control at 35 g/ha [11]: 60 to 74%; pest or weed control at 70 g/ha [11]: 60 to 74%; pest or weed control at 140 g/ha [11]: 75 to 84%
157 to 160 °C	COC(=O)c1nc(-c2cccc3nonc23)cc(N)c1Cl [Compound 16]	0 to 29%	0 to 29%	0 to 29%	85 to 94%	95 to 100%	95 to 100%	0 to 29%	0 to 29%	0 to 29%	0 to 29%	0 to 29%	0 to 29%	0 to 29%	0 to 29%	0 to 29%	0 to 29%	0 to 29%	0 to 29%	0 to 29%	pest or weed control at 70 g/ha [7]: 30 to 44%; pest or weed control at 140 g/ha [7]: 60 to 74%; pest or weed control at 35 g/ha [8]: 30 to 44%; pest or weed control at 70 g/ha [8]: 45 to 59%; pest or weed control at 140 g/ha [8]: 60 to 74%; pest or weed control at 35 g/ha [9]: 0 to 29%; pest or weed control at 70 g/ha [9]: 0 to 29%; pest or weed control at 140 g/ha [9]: 0 to 29%; pest or weed control at 35 g/ha [10]: 0 to 29%; pest or weed control at 70 g/ha [10]: 0 to 29%; pest or weed control at 140 g/ha [10]: 0 to 29%; pest or weed control at 35 g/ha [11]: 60 to 74%; pest or weed control at 70 g/ha [11]: 75 to 84%; pest or weed control at 140 g/ha [11]: 85 to 94%
